Test results taken from US12655116B2, “Substituted isophthalic acid diamides” (Bayer Aktiengesellschaft, priority 2020, dated 2026).

What was measured:
[1] = test system: ABUTH; assay: Pre-emergence herbicidal action against ABUTH; format: in vivo, Abutilon theophrasti; conditions: for Pre-emergence action against ABUTH (herbicidal activity) / pest or weed control at 80 g/ha: 80 g/ha, scored visually after 3 weeks vs untreated controls (100% = plants have died, 0% = like control plants); for pest or weed control at 80 g/ha: Abutilon theophrasti, 504 h
How it was run: (§1)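 Greenhouse pots of sandy loam held seeds covered with soil, onto which the compound was applied before emergence. An aqueous suspension or emulsion of WP or EC was used at 600 to 800 l/ha with 0.2% wetting agent. Percent damage was judged visually at 3 weeks.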

[2] = test system: ALOMY; assay: Pre-emergence herbicidal action against ALOMY; format: in vivo, Alopecurus myosuroides; conditions: pre-emergence; for Pre-emergence action against ALOMY (herbicidal activity) / pest or weed control at 80 g/ha: 80 g/ha, scored visually after 3 weeks vs untreated controls (100% = plants have died, 0% = like control plants); for pest or weed control at 80 g/ha / pest or weed control at 20 g/ha: Alopecurus myosuroides, 504 h; for pest or weed control at 20 g/ha: scored visually after 3 weeks, 100% = plants have died, 0% = like control plants
How it was run: as §1

[3] = test system: AMARE; assay: Pre-emergence herbicidal action against AMARE; format: in vivo, Amaranthus retroflexus; conditions: for pest or weed control at 20 g/ha / pest or weed control at 80 g/ha: Amaranthus retroflexus, 504 h
How it was run: as §1

[4] = test system: AVEFA; assay: Pre-emergence herbicidal action against AVEFA; format: in vivo, Avena fatua; conditions: 80 g/ha, pre-emergence; for pest or weed control at 80 g/ha: Avena fatua, 504 h
How it was run: as §1

[5] = test system: ECHCG; assay: Pre-emergence herbicidal action against ECHCG; format: in vivo, Echinochloa crus-galli; conditions: 80 g/ha; for pest or weed control at 80 g/ha: Echinochloa crus-galli, 504 h
How it was run: as §1

[6] = test system: MATIN; assay: Pre-emergence herbicidal action against MATIN; format: in vivo, Matricaria inodora; conditions: for pest or weed control at 20 g/ha / pest or weed control at 80 g/ha: Tripleurospermum inodorum, 504 h
How it was run: as §1

[7] = test system: SETVI; assay: Pre-emergence herbicidal action against SETVI; format: in vivo, Setaria viridis; conditions: dosage 80 g/ha
How it was run: as §1

[8] = test system: VIOTR; assay: Pre-emergence herbicidal action against VIOTR; format: in vivo, Viola tricolor
How it was run: as §1

[9] = test system: ABUTH; assay: Post-emergence herbicidal action against ABUTH; format: in vivo, Abutilon theophrasti; conditions: visual assessment about 3 weeks after treatment vs untreated controls
How it was run: (§2)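 Foliar application at one-leaf stage of formulated test compounds, aqueous spray at 600–800 l/ha with 0.2% wetting agent. Greenhouse, optimal conditions, ~3 weeks; damage scored visually in % relative to untreated plants.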

[10] = test system: ALOMY; assay: Post-emergence herbicidal action against ALOMY; format: in vivo, Alopecurus myosuroides; conditions: visual assessment about 3 weeks after treatment vs untreated controls
Experimental: (§3) Seeds of monocotyledonous and dicotyledonous weed and crop plants are laid out in sandy loam soil in wood-fiber pots, covered with soil and cultivated in a greenhouse under good growth conditions. 2 to 3 weeks after sowing, the test plants are treated at the one-leaf stage. The compounds of the invention, formulated in the form of wettable powders (WP) or as emulsion concentrates (EC), are then sprayed onto the green parts of the plants in the form of an aqueous suspension or emulsion at a water application rate equivalent to 600 to 800 l/ha, with addition of 0.2% wetting agent. After the test plants have been left to stand in the greenhouse under optimal growth conditions for about 3 weeks, the action of the preparations is assessed visually in comparison to untreated controls (herbicidal action in percent (%): 100% activity=the plants have died, 0% activity=like control plants). […] The tables below illustrate, in an illustrative manner, the post-emergence herbicidal action of the compounds of the invention, the herbicidal activity being stated in percent.

[11] = test system: AMARE; assay: Post-emergence herbicidal action against AMARE; format: in vivo, Amaranthus retroflexus; conditions: 20 g/ha, visual assessment about 3 weeks after treatment, 100% = plants have died, 0% = like control plants; for pest or weed control at 20 g/ha: Amaranthus retroflexus, 504 h
How it was run: as §2

[12] = test system: ECHCG; assay: Post-emergence herbicidal action against ECHCG; format: in vivo, Echinochloa crus-galli; conditions: dosage 20 g/ha
How it was run: as §2

[13] = test system: MATIN; assay: Post-emergence herbicidal action against MATIN; format: in vivo, Matricaria inodora; conditions: dosage 20 g/ha
Experimental: as §3

[14] = test system: PHBPU; assay: Post-emergence herbicidal action against PHBPU; format: in vivo, Pharbitis purpurea
How it was run: as §2

[15] = test system: SETVI; assay: Post-emergence herbicidal action against SETVI; format: in vivo, Setaria viridis; conditions: for pest or weed control at 5 g/ha / pest or weed control at 20 g/ha: Setaria viridis, 504 h
How it was run: as §2

[16] = test system: VERPE; assay: Post-emergence herbicidal action against VERPE; format: in vivo, Veronica persica; conditions: 20 g/ha; for pest or weed control at 20 g/ha: Veronica persica, 504 h
Experimental: as §3

[17] = test system: VIOTR; assay: Post-emergence herbicidal action against VIOTR; format: in vivo, Viola tricolor; conditions: for pest or weed control at 20 g/ha: Viola tricolor, 504 h
How it was run: as §2

[18] = test system: VERPE; assay: Pre-emergence herbicidal action against VERPE; format: in vivo, Veronica persica
How it was run: as §1

[19] = test system: DIGSA; assay: Pre-emergence herbicidal action against DIGSA; format: in vivo, Digitaria sanguinalis; conditions: Digitaria sanguinalis, 504 h
How it was run: as §1

[20] = test system: DIGSA; assay: Post-emergence herbicidal action against DIGSA; format: in vivo, Digitaria sanguinalis; conditions: Digitaria sanguinalis, 504 h
How it was run: as §2

[21] = 20 g/ha, scored visually after 3 weeks vs untreated controls, 100% = plants have died, 0% = like control plants
[22] = 80 g/ha, scored visually after 3 weeks vs untreated controls (100% = plants have died, 0% = like control plants)
[23] = 80 g/ha, scored visually after 3 weeks vs untreated controls, 100% = plants have died, 0% = like control plants
[24] = Abutilon theophrasti, 504 h, dosage 20 g/ha
[25] = Alopecurus myosuroides, 504 h, dosage 20 g/ha
[26] = Ipomoea purpurea, 504 h, dosage 20 g/ha
[27] = Viola tricolor, 504 h, dosage 80 g/ha

SMILES	Pre-emergence action against ABUTH (herbicidal activity) [1]	Pre-emergence action against ALOMY (herbicidal activity) [2]	Pre-emergence action against AMARE in % [3, 22]	Pre-emergence action against MATIN in % ([6]; dosage 80 g/ha)	Pre-emergence action against VIOTR in % ([8]; dosage 80 g/ha)	Post-emergence action against ABUTH in % ([9]; dosage 20 g/ha)	Post-emergence action against ALOMY in % ([10]; dosage 20 g/ha)	Post-emergence action at 20 g/ha against AMARE in % [11]	Post-emergence action against ECHCG in % [12]	Post-emergence action against PHBPU in % ([14]; dosage 20 g/ha)	Post-emergence action against VERPE in % [16]	Post-emergence action against VIOTR in % ([17]; 20 g/ha)	pest or weed control at 80 g/ha [2]	pest or weed control at 20 g/ha [3, 21]	pest or weed control at 80 g/ha [3, 23]	pest or weed control at 80 g/ha ([6]; dosage 80 g/ha)	pest or weed control at 20 g/ha [10, 25]	pest or weed control at 20 g/ha [11]	pest or weed control at 20 g/ha [14, 26]	pest or weed control at 20 g/ha [16]	further results
CCn1nnnc1NC(=O)c1ccc(OC)c(C(=O)NC)c1Cl [Example 2-352]	100%	90%	100%	90%	80%	80%	90%	100%	90%	80%	90%	90%									Pre-emergence action against AMARE in % [3, 21]: 100%; Pre-emergence action against AVEFA in % [4]: 80%; Pre-emergence action against ECHCG in % [5]: 80%; Pre-emergence action against MATIN in % ([6]; dosage 20 g/ha): 90%; Pre-emergence action against SETVI in % [7]: 100%; Pre-emergence action against VIOTR in % ([8]; dosage 20 g/ha): 80%; Post-emergence action against ALOMY in % ([10]; dosage 5 g/ha): 80%; Post-emergence action against MATIN in % [13]: 80%; Post-emergence action against SETVI in % ([15]; dosage 5 g/ha): 80%; Post-emergence action against SETVI in % ([15]; dosage 20 g/ha): 80%
CNC(=O)c1c(Br)ccc(C(=O)Nc2nnnn2C)c1Br [Example 1-342]													100%	100%	100%	100%	100%	100%	90%	80%	pest or weed control at 20 g/ha [2]: 90%; pest or weed control at 80 g/ha [4]: 100%; pest or weed control at 80 g/ha [5]: 100%; pest or weed control at 20 g/ha ([6]; dosage 20 g/ha): 80%; pest or weed control at 5 g/ha ([9]; Abutilon theophrasti, 504 h, dosage 5 g/ha): 90%; pest or weed control at 20 g/ha [9, 24]: 90%; pest or weed control at 5 g/ha ([10]; Alopecurus myosuroides, 504 h, dosage 5 g/ha): 90%; pest or weed control at 20 g/ha ([12]; Echinochloa crus-galli, 504 h): 80%; pest or weed control at 5 g/ha ([14]; Ipomoea purpurea, 504 h, dosage 5 g/ha): 80%; pest or weed control at 5 g/ha ([15]; dosage 5 g/ha): 90%; pest or weed control at 20 g/ha ([15]; dosage 20 g/ha): 90%; pest or weed control at 20 g/ha ([17]; 20 g/ha): 80%
COCCNC(=O)c1c(C(F)F)ccc(C(=O)Nc2nnnn2C)c1C [Example 1-347]	100%	80%	100%	90%	80%	90%	80%	100%	90%	90%	90%	100%									Post-emergence action against ABUTH in % ([9]; dosage 5 g/ha): 80%; Post-emergence action against PHBPU in % ([14]; dosage 5 g/ha): 90%; Post-emergence action against VIOTR in % ([17]; 5 g/ha): 80%
COc1ccc(C(=O)Nc2nnnn2C)c(Cl)c1C(=O)NC1CC1 [Example 1-356]													100%	100%	100%	100%	80%	100%	80%	90%	pest or weed control at 80 g/ha [1]: 100%; pest or weed control at 20 g/ha ([18]; Veronica persica, 504 h, dosage 20 g/ha): 100%; pest or weed control at 80 g/ha ([18]; Veronica persica, 504 h, dosage 80 g/ha): 100%; pest or weed control at 80 g/ha [8, 27]: 100%; pest or weed control at 20 g/ha [9, 24]: 100%; pest or weed control at 20 g/ha ([17]; 20 g/ha): 90%
CSc1c(C(=O)Nc2nnnn2C)ccc(C(F)F)c1C(=O)NCC1CC1 [Example 1-90]	100%	80%	100%	100%	100%	90%	80%	100%	100%	90%	90%	100%									Pre-emergence action against ABUTH (herbicidal activity in percent) ([1]; dosage 20 g/ha, scored visually after 3 weeks vs untreated controls, 100% = plants have died, 0% = like control plants): 100%; Pre-emergence action against AMARE in % [3, 21]: 100%; Pre-emergence action against ECHCG in % [5]: 100%; Pre-emergence action against MATIN in % ([6]; dosage 20 g/ha): 100%; Pre-emergence action against SETVI in % [7]: 100%; Pre-emergence action against VERPE in % ([18]; dosage 80 g/ha): 90%; Pre-emergence action against VIOTR in % ([8]; dosage 20 g/ha): 90%; Post-emergence action against ABUTH in % ([9]; dosage 5 g/ha): 80%; Post-emergence action against MATIN in % [13]: 80%; Post-emergence action against SETVI in % ([15]; dosage 20 g/ha): 90%; Post-emergence action against VIOTR in % ([17]; 5 g/ha): 80%
Cn1nnnc1NC(=O)c1ccc(C(F)(F)F)c(C(=O)NCC(F)(F)F)c1Cl [Example 1-133]													90%	90%	100%	100%	90%	100%	80%	90%	pest or weed control at 80 g/ha [1]: 100%; pest or weed control at 20 g/ha [2]: 90%; pest or weed control at 80 g/ha [4]: 100%; pest or weed control at 80 g/ha [5]: 100%; pest or weed control at 20 g/ha ([6]; dosage 20 g/ha): 90%; pest or weed control at 80 g/ha ([7]; Setaria viridis, 504 h): 100%; pest or weed control at 20 g/ha ([8]; Viola tricolor, 504 h, dosage 20 g/ha): 100%; pest or weed control at 80 g/ha [8, 27]: 100%; pest or weed control at 20 g/ha ([19]; dosage 20 g/ha): 90%; pest or weed control at 80 g/ha ([19]; dosage 80 g/ha): 100%; pest or weed control at 5 g/ha ([15]; dosage 5 g/ha): 90%; pest or weed control at 20 g/ha ([15]; dosage 20 g/ha): 100%; pest or weed control at 20 g/ha ([17]; 20 g/ha): 80%; pest or weed control at 5 g/ha ([20]; 5 g/ha): 90%; pest or weed control at 20 g/ha ([20]; 20 g/ha): 90%
